From PMC12292521, “Discovery of a Potent Antimicrobial Peptide Through Rational Design: A New Frontier in Pathogen Control” (Biomolecules, 2025) come the findings set out here.

For assay [1], the system named is Monophasic Salmonella Typhimurium. Type of assay: cell-based, monophasic variant of Salmonella Typhimurium. Conditions: Monophasic murium, 6 h. The procedure:
To assess the antimicrobial potential of the designed peptide, different strains of Gram-negative and Gram-positive bacteria were evaluated. Pseudomonas aeruginosa was an ATCC (27853) strain, while Escherichia coli, Listeria monocytogenes, Staphylococcus aureus, Campylobacter jejuni, Salmonella Typhimurium, the monophasic variant of Salmonella Typhimurium and Salmonella Napoli were isolated from food products by the Laboratory of Microbiological Food Control—Department of Food Microbiology of the Istituto Zooprofilattico Sperimentale del Mezzogiorno (IZSM) in Portici (Naples, Italy).
In accordance with the Clinical & Laboratory Standards Institute guidelines (CLSI, 2015), the Minimum Bactericidal Concentration (MBC), defined as the minimum concentration of peptide required to kill 99.9% of the tested bacterial suspension within a defined time interval, was determined. L. monocytogenes, E. coli, S. aureus, S. Typhimurium, monophasic variant of S. Typhimurium, S. Napoli, and P. aeruginosa were cultured at 37 °C in buffered peptone water (Thermo Fisher, Milan, Italy), while C. jejuni was cultured in Bolton Broth (Oxoid, Madrid, Spain). The bacterial suspension was collected and then diluted in fresh broth to a final concentration of 1.0 × 10^3 or 1.0 × 10^5 colony-forming units (CFUs)/mL. […] Samples containing only cell suspension and DMSO were used as controls. […]

Assay [2] relates to Aspergillus brasiliensis ATCC 16404. As to the kind of experiment: Quantitative suspension test, fungicidal activity, BS EN 1650:2019. Further details: key to Fungicidal activity verdict: Active: For fungi: ACTIVE if log R ≥ 4 according to BS EN 1650:2019; Not Active: For fungi: ACTIVE if log R ≥ 4 according to BS EN 1650:2019. Type of assay: cell-based. As to conditions: spores, 60 min, 37 °C, BSA 0.3 g/L. The text has this: (§1) The method is based on the suspension test according to BS EN 1276:2019, which specifies a quantitative suspension analysis for the evaluation of the bactericidal activity of chemical disinfectants and antiseptics used in food, industrial, domestic, and institutional areas against a panel of microorganisms under conditions that more closely simulate practical use. Briefly, S. aureus ATCC 6538, P. aeruginosa ATCC 15442, and Staphylococcus epidermidis ATCC 12228 were used as test organisms at a bacterial concentration of 1.0 × 10^8 colony-forming units (CFU) per mL (CFU/mL). In the test, BSA (Bovine Serum Albumin) (0.3 g/L) was used as an interfering substance to mimic clean conditions. […] The reaction mixture was incubated at 37 °C for 60 min before transferring each sample to a tube containing a neutralizer solution consisting of 30 g/L polysorbate 80, 1 g/L sodium thiosulfate, 3 g/L lecithin, 1 g/L tryptone, 8.5 g/L NaCl, 100 mL/L phosphate buffer and water. The negative control (untreated cells) was prepared using PBS instead of biocides. The solutions were then plated onto Tryptone Soy Agar (TSA) and incubated at 37 °C for 48 h to determine the logarithmic CFU/mL reduction, according to the following Equation:(2) log R = log (N0) − log (Na) where R refers to the reduction in viability, N refers to the number of CFU/mL in the test mixture at the beginning of the contact time, and Na refers to the number of CFU/mL in the test mixture at the end of the contact time. […] The test method and the minimum requirements for fungicidal activity of chemical disinfectant and antiseptic products were performed according to BS EN 1650:2019. The fungicidal activity was studied using the vegetative cells of Candida albicans ATCC 10231 and the spores of Aspergillus brasiliensis ATCC 16404 as test organisms. […] The mixture was maintained at 37 °C for a contact time of 60 min. At the end of this contact time, an aliquot was taken, and the fungicidal activity was immediately neutralized with a solution consisting of 30 g/L polysorbate 80, 1 g/L sodium thiosulfate, 3 g/L lecithin, 1 g/L tryptone, 8.5 g/L NaCl, 100 mL/L phosphate buffer and water. The samples were then plated onto malt extract agar (MEA) and incubated at 30 °C for 48 h to determine the numbers of surviving fungi as the logarithmic CFU/mL reduction, calculated according to Equation (2).

The test system of assay [3] is Candida albicans ATCC 10231. The assay is described as above. Type of assay: cell-based. Further details: key to Fungicidal activity verdict: Active: For fungi: ACTIVE if log R ≥ 4 according to BS EN 1650:2019; Not Active: For fungi: ACTIVE if log R ≥ 4 according to BS EN 1650:2019. Conditions: vegetative cells, 60 min, 37 °C, BSA 0.3 g/L.
Description: as §1

Structures are written as SMILES. Values after ≈ are worked out from the molar mass of the structure shown. Peptide text beside a SMILES is read from it.

What is called MBC is the smallest concentration meeting the test's criterion for killing. In assay [1], `CC[C@H](C)[C@H](NC(=O)[C@H](Cc1c[nH]c2ccccc12)NC(=O)[C@H](CCCCN)NC(=O)[C@@H](N)CCCNC(=N)N)C(=O)N[C@@H](CC(C)C)C(=O)N[C@@H](CCCCN)C(=O)N[C@@H](Cc1c[nH]c2ccccc12)C(=O)N[C@@H](CC(C)C)C(=O)N[C@@H](CCCNC(=N)N)C(=O)N[C@H](C(=O)N[C@@H](Cc1c[nH]c2ccccc12)C(=O)N[C@@H](CCCCN)C(=O)N[C@@H](CCCCN)C(N)=O)[C@@H](C)O` [RKW] (H-RKWILKWLRTWKK-NH2; N-terminus assumed) returned an MBC of 20 µM (≈ 36.8 µg/mL). For the same molecule, the Fungicidal activity verdict result in assay [2] (RKW 5 µM) is “Na = 3.40 × 10^6 log Na = 6.53 log R = −0.28 Not Active”; in assay [2] (RKW 10 µM), “Na = 3.30 × 10^6 log Na = 6.52 log R = −0.29 Not Active”; in assay [2] (RKW 20 µM), “Na = 2.20 × 10^6 log Na = 6.34 log R = −0.09 Not Active”; in assay [2] (RKW 50 µM), “Na = 2.20 × 10^6 log Na = 6.34 log R = −0.09 Not Active”; in assay [2] (RKW 100 µM), “Na = 2.20 × 10^6 log Na = 6.34 log R = −0.09 Not Active”; in assay [3] (RKW 5 µM), “Na = 7.70 × 10^4 log Na = 4.89 log R = 1.71 Not Active”. The Fungicidal activity verdict result in assay [3] (RKW 10 µM) is on record as “Na = 1.08 × 10^3 log Na = 3.03 log R = 3.57 Not Active”; in assay [3] (RKW 20 µM), “Na = 2.75 × 10^2 log Na = 2.44 log R = 4.16 Active”; in assay [3] (RKW 50 µM), “Na = 2.75 × 10^2 log Na = 2.44 log R = 4.16 Active”; in assay [3] (RKW 100 µM), “Na = 2.75 × 10^2 log Na = 2.44 log R = 4.16 Active”. Also, the “Na (CFU/mL at the end of the contact time)” value was 3.40 × 10^6 CFU/mL in assay [2] (RKW 5 µM); 3.30 × 10^6 CFU/mL in assay [2] (RKW 10 µM); 2.20 × 10^6 CFU/mL in assay [2] (RKW 20 µM); 2.20 × 10^6 CFU/mL in assay [2] (RKW 50 µM); 2.20 × 10^6 CFU/mL in assay [2] (RKW 100 µM); 7.70 × 10^4 CFU/mL in assay [3] (RKW 5 µM). Also, the “Na (CFU/mL at the end of the contact time)” value is reported as 1.08 × 10^3 CFU/mL in assay [3] (RKW 10 µM), 2.75 × 10^2 CFU/mL in assay [3] (RKW 20 µM), 2.75 × 10^2 CFU/mL in assay [3] (RKW 50 µM) and 2.75 × 10^2 CFU/mL in assay [3] (RKW 100 µM).
